Results reported in patent US8835466B2, “Synthesis and uses of pyroglutamic acid derivatives” (Prodimed, S.A., priority 2006, dated 2014).

System: Ehrlich tumour cells (murine mammary adenocarcinoma)
Experiment: Effect of isomers and BLAS on in vivo tumour growth, Ehrlich tumours (Example 9)
Parameters: species or system Balb/c mice
Conditions: for Tumour surface, overall values (Mean) / Tumour surface, overall values (Median) / Tumour volume, overall values (Mean) / Tumour volume, overall values (Median): 260 ng/mouse i.p. days 6, 7 and 14; for Differences in Ehrlich tumour growth rate vs. placebo, statistical significance p (Mann-Whitney U test): all days scored after the day 8th
Description: This assay was made in order to compare the effect of each stereoisomer on in vivo tumour growth in mice with the effect of the mixture of all of them challenged with Ehlrich tumours. The same products, equipment, reagents, doses, vehicle and route of administration as in example 8 were used.
Mice were inoculated with Ehrlich tumour cells. It was described as a murine mammary adenocarcinoma. Ehrlich tumour is a murine mammary carcinoma originally raised in an outbred mouse, and therefore it belongs to the so-called non-specific tumours (Subiza J L, Viñuela J E, Rodriguez R, Gil J, Figueredo M A, de la Concha. E G. Development of splenic natural suppressor (NS) cells in Ehrlich tumor bearing mice. Int J Cancer, 44:307 315; 1989). It may grow across histocompatibility barriers and therefore is not mouse strain specific (Carry P J, Prescott D M, Ogilvie G K. Resistance to Ehrlich ascites tumor in a strain of dystrophic mice. Cancer Res., 39:2139-2140; 1979).
Ehrlich cells were maintained in vitro by serial passages every 3-4 days. Cultures were performed with RPMI medium medium (RPMI, 10% foetal calf serum, 2 mM L-glutamine, non essential aminoacids, 1 mM sodium pyruvate, 20 mM HEPES, 80 μg/mL gentamycin; all of them were purchased from Sigma, St. Louis, Mo., USA) by seeding 5×10^6 cells onto 75 cm^2 culture flasks. Tumour cells collected from 48 hour cultures were used as source of cells for the studies described below.
Tumours were established by subcutaneous inoculation in the right hind flank. Mice (Balb/c) were inoculated with 0.2 mL containing 2×10^5 viable Ehrlich cells. The day of subcutaneous inoculation will be considered Day 0 of the test.
Mice were observed daily and the tumour size recorded twice a week. This was carried out by measuring two perpendicular diameters (L/W) with a calliper. These measures were used to obtain both tumour surface and volume: Tumour surface=L×W(mm^2) Tumour volume=L×W^2×½(mm^3)
Results were expressed as single values and/or as the mean±SD or median from each experimental group.
A case-control study was performed with treated and control mice in order to determine whether differences between BLAS or each diferent stereoisomer and administration of placebo were present. […] The U-test of Mann Withney was chosen for being one of the better known non-parametrical tests, anyway, results for this test are equivalent both to those of Wilcoxon's sum of ranges and Kruskal-Wallis two-groups test.

[1] = day 13 after tumour inoculation
[2] = day 16 after tumour inoculation
[3] = day 20 after tumour inoculation
[4] = day 23 after tumour inoculation
[5] = day 29 after tumour inoculation
[6] = day 31 after tumour inoculation
[7] = day 35 after tumour inoculation
[8] = day 38 after tumour inoculation

**Q.** Which results are given for `Br.N[C@]1(C[n+]2ccccc2)C[C@@H](C(=O)O)NC1=O.[Br-]` (single isomer, unassigned; isomer 3) [isomer 3, 3S,5S-1-(3-Amino-5-carboxy-2-oxopyrrolidin-3-ylmethyl)pyridinium bromide hidrobromide]?
**A.** Inhibition of the in vivo growth of Ehrlich tumour cells, in words (260 ng i.p. days 6, 7 and 14): inhibit the in vivo growth; Inhibitory effect on Ehrlich tumour growth compared among treatments, in words (260 ng i.p. days 6, 7 and 14): highest inhibitory effect; Tumour surface, overall values (Mean) (day 0 after tumour inoculation): 0 mm^2; Tumour surface, overall values (Median) (day 0 after tumour inoculation): 0 mm^2; Tumour volume, overall values (Mean) (day 0 after tumour inoculation): 0 mm^3; Tumour volume, overall values (Median) (day 0 after tumour inoculation): 0 mm^3; Tumour surface, overall values (Mean) (day 8 after tumour inoculation): 3.62 mm^2; Tumour surface, overall values (Median) (day 8 after tumour inoculation): 0 mm^2; Tumour volume, overall values (Mean) (day 8 after tumour inoculation): 6 mm^3; Tumour volume, overall values (Median) (day 8 after tumour inoculation): 0 mm^3; Tumour surface, overall values (Mean) [1]: 10.94 mm^2; Tumour surface, overall values (Median) [1]: 9 mm^2; Tumour volume, overall values (Mean) [1]: 23.53 mm^3; Tumour volume, overall values (Median) [1]: 13.5 mm^3; Tumour surface, overall values (Mean) [2]: 16.5 mm^2; Tumour surface, overall values (Median) [2]: 16 mm^2; Tumour volume, overall values (Mean) [2]: 37.12 mm^3; Tumour volume, overall values (Median) [2]: 32 mm^3; Tumour surface, overall values (Mean) [3]: 24.12 mm^2; Tumour surface, overall values (Median) [3]: 20 mm^2; Tumour volume, overall values (Mean) [3]: 65.12 mm^3; Tumour volume, overall values (Median) [3]: 40 mm^3; Tumour surface, overall values (Mean) [4]: 32.25 mm^2; Tumour surface, overall values (Median) [4]: 25 mm^2; Tumour volume, overall values (Mean) [4]: 100.44 mm^3; Tumour volume, overall values (Median) [4]: 62.5 mm^3; Tumour surface, overall values (Mean) [5]: 42.94 mm^2; Tumour surface, overall values (Median) [5]: 27.5 mm^2; Tumour volume, overall values (Mean) [5]: 156.34 mm^3; Tumour volume, overall values (Median) [5]: 68.75 mm^3; Tumour surface, overall values (Mean) [6]: 53.37 mm^2; Tumour surface, overall values (Median) [6]: 36 mm^2; Tumour volume, overall values (Mean) [6]: 213.31 mm^3; Tumour volume, overall values (Median) [6]: 100.5 mm^3; Tumour surface, overall values (Mean) [7]: 66 mm^2; Tumour surface, overall values (Median) [7]: 43 mm^2; Tumour volume, overall values (Mean) [7]: 293.87 mm^3; Tumour volume, overall values (Median) [7]: 135.5 mm^3; Tumour surface, overall values (Mean) [8]: 79.37 mm^2; Tumour surface, overall values (Median) [8]: 49.5 mm^2; Tumour volume, overall values (Mean) [8]: 387.69 mm^3; Tumour volume, overall values (Median) [8]: 164.25 mm^3; Differences in Ehrlich tumour growth rate vs. placebo, statistical significance p (Mann-Whitney U test) (either in surface or volume): < 0.05; Differences in Ehrlich tumour growth rate BLAS vs. isomer 3, statistical significance p (Mann-Whitney U test) (either in surface or volume, days 13th, 16th, 20th and 23th): < 0.05

**Q.** For `Br.N[C@]1(C[n+]2ccccc2)C[C@H](C(=O)O)NC1=O.[Br-]` (single isomer, unassigned; isomer 4) [isomer 4, 3S,5R-1-(3-Amino-5-carboxy-2-oxopyrrolidin-3-ylmethyl)pyridinium bromide hidrobromide], which “Inhibition of the in vivo growth of Ehrlich tumour cells, in words” value (260 ng i.p. days 6, 7 and 14) is on record?
**A.** inhibit the in vivo growth

**Q.** What about the “Tumour surface, overall values (Mean)” value (day 0 after tumour inoculation) of the same compound?
**A.** 0 mm^2

**Q.** And the “Tumour surface, overall values (Median)” value (day 0 after tumour inoculation)?
**A.** 0 mm^2

**Q.** What about the “Tumour volume, overall values (Mean)” value (day 0 after tumour inoculation) of the same compound?
**A.** 0 mm^3

**Q.** What about the “Tumour volume, overall values (Median)” value (day 0 after tumour inoculation) of the same compound?
**A.** 0 mm^3

**Q.** And the “Tumour surface, overall values (Mean)” value (day 8 after tumour inoculation)?
**A.** 3.37 mm^2

**Q.** What about the “Tumour surface, overall values (Median)” value (day 8 after tumour inoculation) of the same compound?
**A.** 0 mm^2

**Q.** And the “Tumour volume, overall values (Mean)” value (day 8 after tumour inoculation)?
**A.** 5.94 mm^3

**Q.** And the “Tumour volume, overall values (Median)” value (day 8 after tumour inoculation)?
**A.** 0 mm^3

**Q.** What about the “Tumour surface, overall values (Mean)” value [1] of the same compound?
**A.** 12.44 mm^2

**Q.** What about the “Tumour surface, overall values (Median)” value [1] of the same compound?
**A.** 12.5 mm^2

**Q.** What about the “Tumour volume, overall values (Mean)” value [1] of the same compound?
**A.** 26.91 mm^3

**Q.** And the “Tumour volume, overall values (Median)” value [1]?
**A.** 22.75 mm^3

**Q.** And the “Tumour surface, overall values (Mean)” value [2]?
**A.** 20.19 mm^2

**Q.** What about the “Tumour surface, overall values (Median)” value [2] of the same compound?
**A.** 18 mm^2

**Q.** What about the “Tumour volume, overall values (Mean)” value [2] of the same compound?
**A.** 50.34 mm^3

**Q.** And the “Tumour volume, overall values (Median)” value [2]?
**A.** 36 mm^3

**Q.** And the “Tumour surface, overall values (Mean)” value [3]?
**A.** 31.31 mm^2

**Q.** And the “Tumour surface, overall values (Median)” value [3]?
**A.** 27.5 mm^2

**Q.** And the “Tumour volume, overall values (Mean)” value [3]?
**A.** 95.59 mm^3

**Q.** And the “Tumour volume, overall values (Median)” value [3]?
**A.** 68.75 mm^3

**Q.** What about the “Tumour surface, overall values (Mean)” value [4] of the same compound?
**A.** 43.06 mm^2

**Q.** And the “Tumour surface, overall values (Median)” value [4]?
**A.** 39 mm^2

**Q.** And the “Tumour volume, overall values (Mean)” value [4]?
**A.** 156.53 mm^3

**Q.** What about the “Tumour volume, overall values (Median)” value [4] of the same compound?
**A.** 117 mm^3

**Q.** And the “Tumour surface, overall values (Mean)” value [5]?
**A.** 52.94 mm^2

**Q.** And the “Tumour surface, overall values (Median)” value [5]?
**A.** 45 mm^2

**Q.** And the “Tumour volume, overall values (Mean)” value [5]?
**A.** 214.91 mm^3

**Q.** And the “Tumour volume, overall values (Median)” value [5]?
**A.** 135 mm^3

**Q.** And the “Tumour surface, overall values (Mean)” value [6]?
**A.** 63.12 mm^2

**Q.** What about the “Tumour surface, overall values (Median)” value [6] of the same compound?
**A.** 48.5 mm^2

**Q.** And the “Tumour volume, overall values (Mean)” value [6]?
**A.** 274.94 mm^3

**Q.** And the “Tumour volume, overall values (Median)” value [6]?
**A.** 157.75 mm^3

**Q.** What about the “Tumour surface, overall values (Mean)” value [7] of the same compound?
**A.** 76.31 mm^2

**Q.** What about the “Tumour surface, overall values (Median)” value [7] of the same compound?
**A.** 52.5 mm^2

**Q.** And the “Tumour volume, overall values (Mean)” value [7]?
**A.** 379.72 mm^3

**Q.** What about the “Tumour volume, overall values (Median)” value [7] of the same compound?
**A.** 183.75 mm^3

**Q.** What about the “Tumour surface, overall values (Mean)” value [8] of the same compound?
**A.** 91.56 mm^2

**Q.** And the “Tumour surface, overall values (Median)” value [8]?
**A.** 68 mm^2

**Q.** What about the “Tumour volume, overall values (Mean)” value [8] of the same compound?
**A.** 504.22 mm^3

**Q.** And the “Tumour volume, overall values (Median)” value [8]?
**A.** 272 mm^3

**Q.** What about the “Differences in Ehrlich tumour growth rate vs. placebo, statistical significance p (Mann-Whitney U test)” value (either in surface or volume) of the same compound?
**A.** < 0.05

**Q.** What about the “Ehrlich tumour growth vs. placebo, tendency p” value (surface, day 35th) of the same compound?
**A.** 0.061

**Q.** And the “Ehrlich tumour growth vs. placebo, tendency p” value (surface, day 38th)?
**A.** 0.08

**Q.** And the “Ehrlich tumour growth vs. placebo, tendency p” value (volume, days 35th and 38th (both of them))?
**A.** 0.102
